{"source": "patent EP0526502B1", "about": "“PHENOLIC AMINE DEPIGMENTING AND ANTIMELANOMA AGENTS” (The Governors of the University of Alberta, priority 1990, dated 1991)", "key": {"melanocytes": {"tested_on": "melanocytes", "experiment": "Light and electron microscopy of melanocytes in regrowing hair follicles", "format": "in vivo, mice", "experimental": "In six groups of 4 mice (1 control and 1 for each compound) were treated daily with the control or compound injected i.p. The compounds tested were 4-S-CAP, N-Ac-4-S-CAP and α-Me-4-S-CAP. Samples of skin and regrowing hair follicles were excised under brief general anaesthesia on day 10 (late anagen phase), fixed in Karnovsky's solution (2.5% glutaraldehyde and 2.5% paraformaldehyde in 0l1 M cacodylate buffer), and refixed in 1% osmium tetroxide in cadodylate buffer. Tissues were stained en bloc with 1.5% uranyl acetate in o.1 M veronal buffer for 30min, dehydrated in graded ethanol solutions, embedded in epoxy resin, and sectioned with a Potter-Blum ultramicrotome MT II. Sections 1.0 »m thick were stained with methylene blue for light microscopy, thin sections were stained with led citrate for electron microscopy."}, "B16 melanoma": {"tested_on": "B16 melanoma", "experiment": "In vivo growth inhibition of s.c. inoculated B16 melanoma", "design": "species or system C57BL/6J mice", "settings": "day 12 or 13", "experimental": "The in vivo antimelanoma effect of the compounds were evaluated by percent growth inhibition of inoculated tumour (%g.i.). The percent g.i. was computed from the mean tumour volume at day 12 or 13 of the experiments; i.e., 100 x (1- treated group/control group). […] To further examine whether a minimal dose of N-Ac-4-S-CAP, 200 mg/Kg has an antimelanoma effect, three groups of mice were treated with N-Ac-4-S-CAP. […] One of the advantages of N-Ac-4-S-CAP over 4-S-CAP was that it had much higher LD⁵⁰ (as high as 1400 mg/Kg of body weight, and therefore a greater range of safety)."}, "plasma MAO": {"target": "T1, plasma MAO (Bos taurus, UniProt Q29437)", "T1 construct": "purchased Sigma Chemical Co. (St. Louis, MO, USA)", "T1 sequence (Q29437 17-762)": "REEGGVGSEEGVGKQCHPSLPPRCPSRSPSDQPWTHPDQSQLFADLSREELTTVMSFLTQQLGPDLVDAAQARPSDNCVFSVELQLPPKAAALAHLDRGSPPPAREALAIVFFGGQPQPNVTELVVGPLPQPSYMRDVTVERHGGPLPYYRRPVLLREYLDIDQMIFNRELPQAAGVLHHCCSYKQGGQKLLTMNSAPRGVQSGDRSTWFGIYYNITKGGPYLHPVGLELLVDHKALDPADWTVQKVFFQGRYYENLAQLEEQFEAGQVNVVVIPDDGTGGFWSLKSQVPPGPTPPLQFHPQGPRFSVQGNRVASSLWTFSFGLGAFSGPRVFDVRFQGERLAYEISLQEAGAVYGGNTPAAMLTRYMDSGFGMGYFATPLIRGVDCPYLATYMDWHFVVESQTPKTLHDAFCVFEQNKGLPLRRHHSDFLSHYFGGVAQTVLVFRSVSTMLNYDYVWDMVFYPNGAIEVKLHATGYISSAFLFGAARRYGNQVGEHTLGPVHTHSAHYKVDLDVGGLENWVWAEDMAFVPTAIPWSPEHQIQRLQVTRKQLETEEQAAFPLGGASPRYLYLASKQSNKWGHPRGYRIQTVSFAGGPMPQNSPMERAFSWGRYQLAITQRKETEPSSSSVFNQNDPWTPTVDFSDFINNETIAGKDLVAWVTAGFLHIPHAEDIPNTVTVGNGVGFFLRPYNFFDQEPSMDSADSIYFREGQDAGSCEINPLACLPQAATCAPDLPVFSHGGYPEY", "experiment": "Enzyme kinetics with monoamineoxidase (substrate disappearance by HPLC, Lineweaver-Burk)", "format": "biochemical", "settings": "result in words", "experimental": "Mushroom tyrosinase (400 units/mg) and plasma MAO (1000 units/gm) were obtained from Sigma Chemical Co. (St. Louis, MO, USA). A reaction mixture consisted of a substrate of 7 to 8 different concentrations (40 to 500 »M for mushroom tyrosinase and 20 to 200 »M for MAO) and of either mushroom tyrosinase (2.5 »g) or MAO (10 »g) in 1.0 mL of 0.05 M sodium phosphate buffer, pH 6.8 and 7.4 respectively. The reactions were carried out at 37°C in a shaking water bath, and stopped by taking 100 »L of the reaction mixture and adding it to 900 »L of 0.4 M HCLO₄. The disappearance of substrate was followed using HPLC (high pressure liquid chromatography) Km and Vmax values were calculated from the Lineweaver-Burk plots."}, "[1]": {"experiment": "Acute toxicity / lethal dose and maximum tolerable dose", "experimental": "3:1-85 1972. In accordance with this Protocol, ten to fifteen mice were used in each test group. They were weighed and randomized at day one after s.c. inoculation of B16 melanoma cells. From day five, the phenolic melanin precursors were administered i.p. daily for nine days. The test compounds were dissolved in normal saline, and sterilized by heating to 100°C for 2 minutes. […] They were administered i.p. with the following doses: 400 mg/Kg - 4-S-CAP; 200 to 300 mg/Kg - 4-S-CAP; and 200 to 1200 mg/Kg - N-Ac-4-S-CAP. A catalytic amount of L-dopa, 25 mg/Kg and antidecarboxylase, carbidopa, 400 mg/Kg, were also administered. Carbidopa was given one hour prior to L-dopa administration. DTIC (NSC 4538) was used as a control drug at a dose of 60 mg/Kg. Acute toxicity of 4-S-CP and 4-S-CAP was evaluated from 100 to 1600 mg/Kg.\nThe B16 mouse melanoma was maintained by s.c. inoculation of tumour cells into the back of C57BL7J mice (5 to 6 weeks, female). […] Briefly, excised tumours were homogenized in normal saline. The homogenized tumour cells were then passed through a sterile 80 mesh stainless steel screen, washed with normal saline, centrifuged (500 g. for 10 minutes) and resuspended in normal saline. Suspensions of viable melanoma cells at the concentration of 1 x 10⁶ per 0.1 ml were inoculated s.c. into both the right and left inguinal areas of C57BL/6J mice (female, 5 to 6 weeks old, 18 to 20 gm)."}, "[2]": {"settings": "Experiment I, 200 mg/Kg i.p. daily for nine days"}, "[3]": {"settings": "Experiment I, 400 mg/Kg i.p. daily for nine days"}, "[4]": {"settings": "Experiment I, 600 mg/Kg i.p. daily for nine days"}, "[5]": {"settings": "Experiment I, 800 mg/Kg i.p. daily for nine days"}, "[6]": {"settings": "Experiment II, 400 mg/Kg i.p. daily for nine days"}, "[7]": {"settings": "Experiment II, 800 mg/Kg i.p. daily for nine days"}, "[8]": {"settings": "Experiment II, 1200 mg/Kg i.p. daily for nine days"}}}
{"smiles": "CC(=O)NCCSc1ccc(O)cc1", "note": "[N-Ac-4-S-CAP, N-ACETYL-4-S-CYSTEAMINYLPHENOL]", "values": [{"measurement": "light microscopy of hair follicles: functioning melanocytes and melanin pigments", "setting": "melanocytes; i.p. daily, day 10 (late anagen phase)", "result": "neither functioning melanocytes nor melanin pigments remained in the follicles"}, {"measurement": "electron microscopy of hair follicles: melanocytes and melanosomes", "setting": "melanocytes; i.p. injection for 10 days", "result": "no melanocytes or melanosomes were visible"}, {"measurement": "%Gi", "setting": "B16 melanoma; [2]", "result": 39.8, "unit": "%"}, {"measurement": "Tumour Volume", "setting": "B16 melanoma; [2]", "result": "313 ± 83", "unit": "mm^3"}, {"measurement": "%Gi", "setting": "B16 melanoma; [3]", "result": 57.3, "unit": "%"}, {"measurement": "Tumour Volume", "setting": "B16 melanoma; [3]", "result": "222 ± 13", "unit": "mm^3"}, {"measurement": "%Gi", "setting": "B16 melanoma; [4]", "result": 63.18, "unit": "%"}, {"measurement": "Tumour Volume", "setting": "B16 melanoma; [4]", "result": "192 ± 48", "unit": "mm^3"}, {"measurement": "%Gi", "setting": "B16 melanoma; [5]", "result": 74.4, "unit": "%"}, {"measurement": "Tumour Volume", "setting": "B16 melanoma; [5]", "result": "133 ± 11", "unit": "mm^3"}, {"measurement": "%Gi", "setting": "B16 melanoma; Experiment II, 200 mg/Kg i.p. daily for nine days", "result": 32.0, "unit": "%"}, {"measurement": "%Gi", "setting": "B16 melanoma; [6]", "result": 34.0, "unit": "%"}, {"measurement": "Tumour Volume", "setting": "B16 melanoma; [6]", "result": "359 ± 52", "unit": "mm^3"}, {"measurement": "%Gi", "setting": "B16 melanoma; [7]", "result": 63.4, "unit": "%"}, {"measurement": "Tumour Volume", "setting": "B16 melanoma; [7]", "result": "199 ± 26", "unit": "mm^3"}, {"measurement": "%Gi", "setting": "B16 melanoma; [8]", "result": 70.7, "unit": "%"}, {"measurement": "Tumour Volume", "setting": "B16 melanoma; [8]", "result": "159 ± 23", "unit": "mm^3"}, {"measurement": "substrate for plasma MAO", "setting": "plasma MAO", "result": "not, however, a substrate for plasma MAO"}, {"measurement": "lethal dose", "setting": "[1]; acute toxicity, mice", "result": 1400, "unit": "mg/kg"}, {"measurement": "per single dose toxicity levels", "setting": "[1]; experimental tests on animals, single dose", "result": "~1,400 mg/kg of body weight"}, {"measurement": "LD50", "setting": "[1]; mouse, in vivo, ip", "result": 1400, "unit": "mg/kg"}]}
